Tested on: 519858-162-T-J1-PDC complex spheroid viability
Assay: Anticancer human tumor 519858-162-T-J1-PDC patient-derived colon adenocarcinoma cell line growth inhibition [GQUAD]
Conditions: for IC50: curve of first compound; for viability, T/C: stronger effect = lower value; active = viability on the fitted dose curve at most 10% of control; inactive = the rest
Excerpt: DNA G-quadruplex Stabilizer Agents in Combinations in Complex Spheroids
A high-throughput screen of multi-cell type tumor spheroids was designed to identify active combinations of DNA G-quadruplex stabilizer agents and targeted small molecules. Complex spheroids include a stromal component modeled by human endothelial cells (HUVEC) and fibroblasts modeled by human mesenchymal stem cells (MSCs). The concentration ranges selected for each drug and investigational agent were based upon clinically achievable concentrations if the clinical Cmax of the agent was known.
Compounds. The drugs and investigational agents: pidnarulex (CX-5461; NSC782164), APTO-253 (NSC789042), BRACO-19 (NSC847499), peposertib (NSC802822), ceralasertib (NSC780249), elimusertib (NSC800525), camonsertib (NSC841442), AZD-1390 (NSC803789), olaparib (NSC753686), talazoparib (NSC767125), ART-558 (NSC835418), sotorasib (NSC818433), MRTX-1133 (NSC836407), SN-38 (NSC673596), topotecan (NSC609699), etoposide (NSC141540), doxorubicin (NSC123127), gemcitabine (NSC613327), 5-fluorouracil (NSC19893), paclitaxel (NSC125973), vemurafenib (NSC761431), panobinostat (NSC761190), R-306465 (JNJ-16241199; NSC773264), adavosertib (NSC754352), TP-3654 (NSC805149), carboplatin (NSC241240), KSQ-4279 (NSC840948), and staurosporine (NSC755774) were obtained from the National Cancer Institute (NCI) Developmental Therapeutics Program Chemical Repository (34). The FDA-approved anticancer drug set is available from the NCI Developmental Therapeutics Program. […] The stock solutions were prepared in dimethyl sulfoxide (DMSO, Sigma-Aldrich, St. Louis, MO, cat. D2650) at 800-fold the tested concentration and stored at -70 degrees C prior to their use. All drugs and investigational agents were tested over a range starting from a high concentration at or near the clinical Cmax and decreasing in half-log increments. If the clinical Cmax for an agent had not been determined, the highest concentration tested was 10 microM.
2.3 Cell Culture. All cells were maintained in an incubator at 37 degrees C and 5% CO2 with 95% humidity. The PDC lines were cultured according to standard operating procedures established by the NCI PDMR. All PDCs were thawed and cultured in Matrigel-coated flasks prepared with a working solution of 1X Ham's F-12 nutrient mix, without supplementation (Invitrogen, cat. 11765054), 100 U/mL penicillin-streptomycin (Invitrogen, cat. 15140122), and 2.5% Matrigel (Corning Inc., cat. 354248) for the first three passages. The 857933-349-R-J2-PDC line was cultured in 6C/Colon 1B media, which includes advanced DMEM/F-12 (Thermo Fisher Scientific, cat. 12634028), 10 mM HEPES (Thermo Fisher Scientific, cat. 15630080), 1X GlutaMAX supplement (Thermo Fisher Scientific, cat. 35050061), 0.1 mg/mL primocin (InvivoGen, cat. ant-pm-2), 10% defined fetal bovine serum, heat inactivated (HyClone Laboratories Inc., cat. SH30070.03HI), 50% L-WRN conditioned media (ATCC, cat. CRL-3276), 1.25 mM N-Acetyl-L-cysteine (Sigma-Aldrich, cat. A9165), 10 mM nicotinamide (Sigma-Aldrich, cat. N0636), 1X B-27 supplement (Thermo Fisher Scientific, cat. 17504044), 1X N-2 supplement (Thermo Fisher Scientific, cat. 17502048), 10 microM Y-27632 dihydrochloride (Tocris Bioscience, cat. 1254), and 50 ng/mL human EGF recombinant protein (Thermo Fisher Scientific, cat. PHG0311). The 485176-168-R4-J1-PDC line was cultured in Panc media, which includes all 6C/Colon 1B media components plus 100 ng/mL human FGF-10 (Thermo Fisher Scientific, cat. 100-26), 500 nM SB-431542 (Selleckchem, cat. S1067), and gastrin (Tocris, cat. 3006).
[…]

[1] = second compound 0.0316 µM, first compound 0.0316 µM
[2] = second compound 0.0316 µM, first compound 0.1 µM
[3] = second compound 0.0316 µM, first compound 0.316 µM
[4] = second compound 0.0316 µM, first compound 1 µM
[5] = second compound 0.0316 µM, first compound 3.16 µM
[6] = second compound 0.0316 µM, first compound 10 µM
[7] = second compound 0.1 µM, first compound 0.0316 µM
[8] = second compound 0.1 µM, first compound 0.1 µM
[9] = second compound 0.1 µM, first compound 0.316 µM
[10] = second compound 0.1 µM, first compound 1 µM
[11] = second compound 0.1 µM, first compound 3.16 µM
[12] = second compound 0.1 µM, first compound 10 µM
[13] = second compound 0.316 µM, first compound 0.0316 µM
[14] = second compound 0.316 µM, first compound 0.1 µM
[15] = second compound 0.316 µM, first compound 0.316 µM
[16] = second compound 0.316 µM, first compound 1 µM
[17] = second compound 0.316 µM, first compound 3.16 µM
[18] = second compound 0.316 µM, first compound 10 µM
[19] = second compound 1 µM, first compound 0.0316 µM
[20] = second compound 1 µM, first compound 0.1 µM
[21] = second compound 1 µM, first compound 0.316 µM
[22] = second compound 1 µM, first compound 1 µM
[23] = second compound 1 µM, first compound 3.16 µM
[24] = second compound 1 µM, first compound 10 µM
[25] = second compound 3.16 µM, first compound 0.0316 µM
[26] = second compound 3.16 µM, first compound 0.1 µM
[27] = second compound 3.16 µM, first compound 0.316 µM
[28] = second compound 3.16 µM, first compound 1 µM
[29] = second compound 3.16 µM, first compound 3.16 µM
[30] = second compound 3.16 µM, first compound 10 µM
[31] = second compound 10 µM, first compound 0.0316 µM
[32] = second compound 10 µM, first compound 0.1 µM
[33] = second compound 10 µM, first compound 0.316 µM
[34] = second compound 10 µM, first compound 1 µM
[35] = second compound 10 µM, first compound 3.16 µM
[36] = second compound 10 µM, first compound 10 µM
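Note: spheroids exposed to compounds for 7 days.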

COc1cccc2c1C(=O)c1c(O)c3c(c(O)c1C2=O)CC(O)(C(=O)CO)CC3OC1CC(N)C(O)C(C)O1 (centres undefined) + Cc1cnc(CNC(=O)c2c(=O)c3ccc(N4CCCN(C)CC4)nc3n3c2sc2ccccc23)cn1
inactive: viability, T/C [1] 105% | viability, T/C [2] 85.3% | viability, T/C [3] 63.1% | viability, T/C [4] 81.8% | viability, T/C [5] 71.5% | viability, T/C [6] 59.9% | viability, T/C [7] 108% | viability, T/C [8] 80.2% | viability, T/C [9] 91% | viability, T/C [10] 79.1% | viability, T/C [11] 67% | viability, T/C [12] 58.8% | viability, T/C [13] 89.9% | viability, T/C [14] 51.9% | viability, T/C [15] 80.7% | viability, T/C [16] 44.4% | viability, T/C [17] 50.6% | viability, T/C [18] 74.3% | viability, T/C [19] 82.2% | viability, T/C [20] 44.3% | viability, T/C [21] 88.7% | viability, T/C [22] 53.4% | viability, T/C [23] 47.7% | viability, T/C [24] 57.6% | viability, T/C [25] 55.9% | viability, T/C [26] 61.1% | viability, T/C [27] 55% | viability, T/C [28] 33.6% | viability, T/C [29] 55.7% | viability, T/C [30] 47.1% | viability, T/C [31] 36% | viability, T/C [32] 52.4% | viability, T/C [33] 43.9% | viability, T/C [34] 39.5% | viability, T/C [35] 41.4% | viability, T/C [36] 31.8%
< 31.6 nM: IC50 (second compound 10 µM)
> 10000 nM: IC50 (second compound 0.0316 µM) | IC50 (second compound 0.1 µM) | IC50 (second compound 0.316 µM) | IC50 (second compound 1 µM)
577 nM: IC50 (second compound 3.16 µM)

O=C(NO)c1cnc(N2CCN(S(=O)(=O)c3ccc4ccccc4c3)CC2)nc1 + Cc1cnc(CNC(=O)c2c(=O)c3ccc(N4CCCN(C)CC4)nc3n3c2sc2ccccc23)cn1
244 nM: IC50 (second compound 0.0316 µM)
173 nM: IC50 (second compound 1 µM)
345 nM: IC50 (second compound 0.316 µM)
active: viability, T/C [5] 0.34% | viability, T/C [6] 0.45% | viability, T/C [10] 11.7% | viability, T/C [11] 1.16% | viability, T/C [12] 1.51% | viability, T/C [16] 8.35% | viability, T/C [17] 5.71% | viability, T/C [18] 1.25% | viability, T/C [22] 6.88% | viability, T/C [23] 1.42% | viability, T/C [24] 0.68% | viability, T/C [29] 3.32% | viability, T/C [30] 1.98% | viability, T/C [34] 5.86% | viability, T/C [35] 3.74% | viability, T/C [36] 2.11%
< 31.6 nM: IC50 (second compound 10 µM)
339 nM: IC50 (second compound 0.1 µM)
inactive: viability, T/C [1] 119% | viability, T/C [2] 72.2% | viability, T/C [3] 50.9% | viability, T/C [4] 13.3% | viability, T/C [7] 81.2% | viability, T/C [8] 104% | viability, T/C [9] 53% | viability, T/C [13] 92% | viability, T/C [14] 85.8% | viability, T/C [15] 53.8% | viability, T/C [19] 88.7% | viability, T/C [20] 66.8% | viability, T/C [21] 31.8% | viability, T/C [25] 68.2% | viability, T/C [26] 45.7% | viability, T/C [27] 37.1% | viability, T/C [28] 5.54% | viability, T/C [31] 42.8% | viability, T/C [32] 44.6% | viability, T/C [33] 26.1%
107 nM: IC50 (second compound 3.16 µM)

— PubChem BioAssay AID2060507 (Molecular Pharmacology Branch, DTP, NCI, 2025)
